The record followed here is patent US4843075A, “Benzothiopyrano[4,3-c]pyridazine compounds, methods for preparing said compounds and uses of said compounds” (Yoshitomi Pharmaceutical Industries, Ltd., priority 1986, dated 1989).

The nature of assay [1]: Anti-bicuculline effect (tonic convulsion in mice). The format is in vivo, male ddY-strain mice. As to conditions: Mus musculus, oral, (+)bicuculline 0.6 mg/kg i.v. 1 hour after test compound, tonic convulsion within 5 minutes. As for the experimental part:
The experiment of anti-bicuculline effect was performed according to the method described in Life Science, vol. 21, p. 1779 (1977).
In brief, groups of 7-14 male ddY-strain mice weighing 20-28 g were used. (+)Bicuculline (0.6 mg/kg) was intraveneously administered 1 hour after the oral adminstration of test compound, and the ED50, 50% effective dose, was determined by observing the existence of tonic convulsion within 5 minutes.

For the next assay, the target named is benzodiazepine receptor. Kind of assay: Displacement ability for benzodiazepine receptor (displacement of tritiated diazepam). As to conditions: displacement of tritiated diazepam (2 nM), rat cerebral cortex synaptosomal fraction, pH 7.4, 0° C., 20 minutes; read-out: binding for benzodiazepine Ki. The protocol: The experiment was performed according to the methods described in European Journal of Pharmacology, vol. 51, P. 129 (1978) and Life Science, vol. 20, p. 1201 (1977).
In brief, a crude synaptosomal fraction was isolated from the cerebral cortex of 9 to 10 week-old male Wistar rats and suspended in 50 mM of Tris-hydrochloric acid buffer solution (pH 7.4) containing 120 mM of sodium chloride and 5 mM of potassium chloride.
To the synaptosomal suspension as prepared above were added various concentrations of test compounds and tritiated diazepam (final concentration:2 nM), and the mixture was incubated at 0° C. for 20 minutes. Then the suspension was filtered through Whatman GF/B glass fiber filter. After the filter was washed with the foregoing buffer solution, the radioactivity left on the filter was measured by a liquid scintillation spectrometry.
Specific binding was determined by subtracting binding in the presence of 10^-6 M unlabelled diazepam from total binding.
According to the above experimental method, the affinity of the compounds of the present invention for benzodiazepine receptor is evaluated as an ability to displace tritiated diazepam from the binding site, and is represented as Ki value.

Molecules are shown by their SMILES.

The term ED50 denotes the dose that gives a 50% effect, or the effect in half of the subjects. What is called Ki is a dissociation constant, usually derived from enzyme kinetics or from competition with a known ligand. The compound `O=C1CC2CSc3ccccc3C2=NN1c1ccc(Cl)cc1` (centres unmarked) [Example 1, 2-(4-chlorophenyl)-2,3,4,4a-tetrahydro-5H-(1)benzothiopyrano[4,3-c]pyridazin-3-one] returned an ED50 in assay [1] of 12.4 mg/kg. Also, the Ki at benzodiazepine receptor amounted to 40 nM.

As for `O=C1CC2C[S+]([O-])c3ccccc3C2=NN1c1ccc(Cl)cc1` (centres unmarked) [Example 3, 2-(4-chlorophenyl)-2,3,4,4a-tetrahydro-5H-(1)benzothiopyrano[4,3-c]pyridazin-3-one 6-oxide], in assay [1], the ED50 came to 4.1 mg/kg. For the compound `Cc1ccc(N2N=C3c4ccccc4SCC3CC2=O)cc1` (centres unmarked) [Example 9, 2-(4-methylphenyl)-2,3,4,4a-tetrahydro-5H-(1)benzothiopyrano[4,3-c]pyridazin-3-one], the inhibition constant Ki at benzodiazepine receptor was found to be 12 nM. As to `COc1ccc(N2N=C3c4ccccc4SCC3CC2=O)cc1` (centres unmarked) [Example 10, 2-(4-methoxyphenyl)-2,3,4,4a-tetrahydro-5H-(1)benzothiopyrano[4,3-c]pyridazin-3-one], at benzodiazepine receptor, the inhibitory constant (Ki) was determined as 13 nM. As for `O=C1CC2CSc3ccccc3C2=NN1c1ccc(Br)cc1` (centres unmarked) [Example 13, 2-(4-bromophenyl)-2,3,4,4a-tetrahydro-5H-(1)benzothiopyrano[4,3-c]pyridazin-3-one], the inhibition constant Ki at benzodiazepine receptor was determined as 45 nM. Turning to `O=C1CC2C[S+]([O-])c3ccc(F)cc3C2=NN1c1ccc(Cl)cc1` (centres unmarked) [Example 19, 2-(4-chlorophenyl)-9-fluoro-2,3,4,4a-tetrahydro-5H-(1)benzothiopyrano[4,3-c]pyridazin-3-one 6-oxide], the ED50 in assay [1] amounted to 10.6 mg/kg.

As to `Cc1ccc2c(c1)C1=NN(c3ccc(Cl)cc3)C(=O)CC1C[S+]2[O-]` (centres unmarked) [Example 23, 2-(4-chlorophenyl)-9-methyl-2,3,4,4a-tetrahydro-5H-(1)benzothiopyrano[4,3-c]pyridazin-3-one 6-oxide], in assay [1], the ED50 was found to be 40.6 mg/kg.
